Source: patent US20220354847A1, “THIAMINE THERAPY FOR FATTY LIVER ASSOCIATED DISEASES” (priority 2019, published 2022)

Legend:
liver histology = details: literature, cited from earlier work; for associated adverse effects: long-term treatment
hepatic steatosis = details: literature (Biomedical Reports 2013; Journal of Hepatology 2016); cited from earlier work
[1] = tested on: hepatic alterations caused by a high-fat diet; details: mice; literature; cited from earlier work
[2] = tested on: hepatic steatosis in lambs grown on the HC diet
[3] = tested on: lambs grown on the HC diet; details: within one week of treatment; saline-treated HC group 77.2 mg/dL
[4] = tested on: circulating leukocytes gene expression; details: FIG. 14A

vitamin E
effect on liver histology (liver histology; biopsy-proven NASH patients): improve liver histology
associated adverse effects (liver histology): modest increase in the risk for prostate cancer

CN(C)C(=N)N=C(N)N [metformin]
effect on hepatic steatosis / liver fat (hepatic steatosis): no effect

CCc1ccc(CCOc2ccc(CC3SC(=O)NC3=O)cc2)nc1 (stereo not drawn) [pioglitazone]
associated adverse effects (liver histology): weight gain

O=C1CCC(N2C(=O)c3ccccc3C2=O)C(=O)N1 (stereo not drawn) [thalidomide]
hepatic alterations caused by a high-fat diet [1]: improvements

N[C@@H](CC(=O)N1CCn2c(nnc2C(F)(F)F)C1)Cc1cc(F)c(F)cc1F [Sitagliptin]
effect on hepatic steatosis / liver fat (hepatic steatosis): ineffective

Cc1ncc(C[n+]2csc(CCO)c2C)c(N)n1 [thiamine]
hepatocellular steatosis (macro-vesicular or micro-vesicular, histology score 0 to 3) ([2]; HC vs LC and THC, FIG. 11B, 11D): significantly increased in the HC compared to both the LC and THC groups
hepatic steatosis (liver fat content, percentage of wet liver weight) ([2]; THC group, HC diet + thiamine 300 mg/animal s.c. 3 then 5 times a week for the last 85 of 135 days, HC=8.1%, LC 3.8%, P<0.0001): 4.8%
hepatic index (liver weight/BW) ([2]; THC vs HC, FIG. 11C): no significant effect
blood glucose levels [3]: 71.7 mg/dL
liver expression of APOB (liver gene expression; FIG. 13C): No effects
liver expression of the energy-sensing axis and of the transporters of NEFA (CD36, SLC27A6, SLC27A5) (liver gene expression; FIG. 13D): No effect
liver gene expression of NFKB1, IL1B, CCL2 and IL8 (liver gene expression; FIG. 14B): No significant alterations
liver expression of catalase (liver gene expression; FIG. 14C): did not affect
liver expression of TNF (liver gene expression; P=0.005, FIG. 14B): lowered
liver expression of superoxide dismutase 2 (SOD2) (liver gene expression; P=0.02, FIG. 14C): increase
liver expression of genes coding for AMPK (PRKAA2), PGC-1α (PPARGC1A) and PPAR-α (PPARA) (liver gene expression; THC vs HC): did not affect
Perilipin 2 transcripts in liver (liver gene expression; THC vs HC, P=0.002, FIG. 13C): lowered Perilipin 2 transcripts substantially
liver expression of SIRT1 (liver gene expression; between the treatments, FIG. 13A): not different
abundance of MTTP transcripts in liver (liver gene expression; compared with untreated HC group, P=0.001): increased
liver expression of glutathione peroxidase 1 (GPX1) (liver gene expression; in vivo): no detected treatment effects
inflammatory state increased by the HC diet (proinflammatory gene expression) (liver gene expression; leukocyte and liver, FIG. 14 legend): partially alleviated
leukocyte expression of IL1B, TNF and IFNG [4]: No treatment effects
leukocyte expression of CXCL8 ([4]; thiamine-treated animals, P=0.05): lower expression
